Source: publication PMC12775124, “CUL4A-DDB1-DCAF10 is an N-recognin for N-terminally acetylated Src kinases” (Nature Communications, 2026)
Where a SMILES comes first, the peptide text is derived from it. The star is where a group is joined. Cbz = O=C(OCc1ccccc1)*

Assays:
THOC7 = THOC7 turnover, cycloheximide / MG132; type: cell-based, human; conditions: NMT1/2 KD, HeLa, n = 3, 'unaffected'
Procedure: (§1) To assess this, HeLa cells were transfected with NMT1/2 siRNA or left untreated and analysed after addition of cycloheximide (8 h) to block protein synthesis or MG132 (4 h) to inhibit proteasomal degradation.
(§2) 124 Supplementary Fig. 5. NMT1/2 knockdown leads to an increased turnover of SFKs
(§3) 125 and overexpression of DCAF10 reduces SFK levels after NMT1/2 knockdown. […]
(§4) 130 overexpression. Untreated: purple; with NMT1/2 RNAi: blue. Individual data points are
(§5) 131 indicated (n = 2 or 3 independent biological replicates). MG132 = proteasome inhibitor;
(§6) 132 CHX = cycloheximide translational inhibitor. d) HeLa cells were treated for 72 h with and
(§7) 133 without NMT1/2 siRNA and treated with cycloheximide or MG132 for the indicated
(§8) 134 periods of time. Representative WBs are shown. Filled circles indicate treatment; empty
(§9) 135 circles indicate no treatment. e-h) Fold-change analysis of protein expression levels under
(§10) 136 the indicated conditions. Left: fold change after 8 h cycloheximide treatment of (e) Lyn,
(§11) 137 (f) Fyn, (g) Src and (h) THOC7. […]
(§12) 413 knockdown, the transfection reagent Lipofectamine RNAiMAX (Invitrogen, Thermo
(§13) 414 Fisher Scientific, Waltham, MA, USA) was used at a final dilution of 1:333 (3 μL/mL of
(§14) 415 medium). Pools of siRNAs, including siNMT1, siNMT2, siDCAF10, siZYG11B, and
(§15) 416 siZER1, or combinations of different siRNAs, were reverse transfected at a concentration […]

Fyn [1] = test: Fyn turnover, cycloheximide / MG132; type: cell-based, human; conditions: HeLa, n = 3
Procedure: as §1, §2, §3, §4, §5, §6, §7, §8, §9, §10, §11
410 HeLa, DLD-1 and all thereof derived stable cell lines, and RPE-1 cells were grown in
412 serum (FBS). Cells were counted and diluted to 100,000 cells/mL. For siRNA
as §12, §13
415 medium). […]

Lyn [2] = test: Lyn turnover, cycloheximide / MG132; type: cell-based, human; conditions: HeLa, n = 3
Procedure: as §1, §2, §3, §4, §5, §6, §7, §8, §9, §10, §11, §12, §13, §14, §15

Src [3] = test: Src turnover, cycloheximide / MG132; type: cell-based, human; conditions: HeLa, n = 3
Procedure: as §1, §2, §3, §4, §5, §6, §7, §8, §9, §10, §11, §12, §13, §14, §15

ZYG11B = test: Peptide pull-down with quantitative MS, HeLa lysate, ZYG11B; type: binding, human (HeLa); conditions: Nt-Ac vs Nt-free peptides
Procedure: Biotinylated 10-mer Nt-peptides (Nt-free, Nt-acetylated, and, where indicated, Nt-myristoylated; sequences in Supplementary Table 1) were synthesized with a C-terminal Lys3 spacer and biotin, immobilized on magnetic streptavidin beads, and incubated with HeLa or mouse liver lysates. After standardized washes, bound proteins were on-bead reduced/alkylated, digested with LysC/trypsin, desalted, and analysed by LC-MS in DIA mode (Orbitrap Exploris 480) as described previously. Variants included endogenous Nt-sequences, swap and mutant (Ala-Ala-Ala or Nt-amino acids) peptides, and pairwise comparisons of conditions of interest. Full buffer compositions, bead loading, wash schemes, and MS parameters are provided in the Supplementary Methods.
203 Supplementary Methods
205 Peptide sequences are listed in Supplementary Table 1. Peptide pull-downs were
Briefly, magnetic streptavidin beads (DynabeadsTM
Beads were then washed three times with PBS. After
210 washing, 1 mg of HeLa lysates or 2 mg of liver lysates was taken, and lysis buffer (75
Lysates were incubated with streptavidin
HeLa pull-downs were washed twice with lysis buffer and twice
Liver pulldowns were washed twice with cold low salt buffer (50 mM
220 individually ventilated cages under a 12-h light/dark cycle and were provided with sterile
All procedures were performed
No animal procedures were performed specifically for this […]

Src [4] = test: In vitro ubiquitination of immunoprecipitated Src; type: biochemical, human; conditions: 250 nM E3 complex, n = 3
From the text: (§16) Having established cellular regulation by DCAF10 under reduced N-myristoylation, we aimed to test whether CUL4A-DDB1-DCAF10 directly ubiquitinates SFKs. […] As we expect NMT1/2 depletion to cause a destabilization of SFKs, their equal or even greater ubiquitination in IPs from untreated cells relative to NMT1/2-depleted cells was unanticipated. We speculate that (i) Nt-acetylated SFKs may degrade rapidly, preventing their accumulation upon NMT1/2 depletion; (ii) an acetylated fraction of SFKs may exist under physiological conditions; (iii) DCAF10 might recognize additional surfaces.
(§17) Reactions contained E1, UBCH5B (E2), ubiquitin, Mg-ATP in ligation buffer and were incubated with bead-bound substrates, followed by washing and immunoblot detection of ubiquitinated species (anti-ubiquitin), with loading controls (anti-Lyn, -Fyn, -Src or -GFP) (n = 3 independent enzymatic assays). Complete reagent lists, complex preparation, substrate IP conditions, wash buffers, and gel/blot parameters are provided in the Supplementary Methods and Tables.
(§18) 357 (v/v) glycerol, 2 mM TCEP, supplemented with Protease Inhibitor Cocktail), and lysed
(§19) 358 by sonication. Lysates were cleared by centrifugation at 28,000 rpm for 45 min at 4 °C […]
(§20) 382 EDTA, and loaded on a gradient gel (4–15%). Ubiquitination of substrates was assessed
(§21) 383 by WB using an anti-ubiquitin antibody. Equal substrate loading was evaluated by anti- […]

Fyn [5] = test: In vitro ubiquitination of immunoprecipitated Fyn; type: biochemical, human; conditions: 250 nM E3 complex, n = 3
From the text: as §16, §17, §18, §19, §20, §21

Lyn [6] = test: In vitro ubiquitination of immunoprecipitated Lyn; type: biochemical, human; conditions: 250 nM E3 complex, 1 h 30°C, Ub normalized to bait, n = 3
From the text: as §16, §17, §18, §19, §20, §21

[7] = cycloheximide 100 µg/mL 8 h, NMT1/2 KD relative to cycloheximide-treated control
[8] = IP from NMT1/2-depleted HeLa cells

In the case of `C[C@@H]1C[C@@H]([C@H](O)CC2CC(=O)NC(=O)C2)C(=O)[C@@H](C)C1` [Cycloheximide], the THOC7 decrease (THOC7; cycloheximide 100 µg/mL 8 h) is reported as 1.1 fold, the Fyn decrease (Fyn [1]; [7]) is reported as 1.5 fold and the Lyn decrease (Lyn [2]; [7]) is reported as 2 fold. For the same compound, the Src decrease (Src [3]; [7]) was 1.3 fold.

With `CC(C)C[C@@H](C=O)NC(=O)[C@H](CC(C)C)NC(=O)[C@H](CC(C)C)NC(=O)OCc1ccccc1` [MG132] (Cbz-Leu-Leu-Leu-aldehyde) the THOC7 increase (THOC7; MG132 10 µM 4 h) was 1.1 fold, the Fyn increase (Fyn [1]; MG132 10 µM 4 h, NMT1/2 KD) was 1.6 fold and the Lyn increase (Lyn [2]; MG132 10 µM 4 h, NMT1/2 KD) was 1.6 fold. For the same compound, the Src increase (Src [3]; MG132 10 µM 4 h, NMT1/2 KD) was 2 fold.

In the case of “GAPATRRCVEKK [Nt-free TMEM97, Nt-peptide of TMEM97, Nt-free]”, the “ZYG11B binding (in words)” value (ZYG11B) is reported as “ZYG11B binding only to the Nt-free peptide of TMEM97”.

In the case of “WT: catalytically active E3 ligase complex of full-length CUL4A, DDB1, DCAF10 and RBX1”, the “Src ubiquitination, ratio relative to RBX1^mut” value (Src [4]; [8]) is reported as 2.03 fold, the “Src ubiquitination, ratio relative to RBX1^mut” value (Src [4]; IP from control HeLa cells) is reported as 3.0 fold and the “Fyn ubiquitination, ratio relative to RBX1^mut” value (Fyn [5]; [8]) is reported as 2.27 fold. For the same compound, the “Fyn ubiquitination, ratio relative to RBX1^mut” value (Fyn [5]; IP from control HeLa cells) was 2.73 fold, the “Lyn ubiquitination, ratio relative to RBX1^mut” value (Lyn [6]; [8]) was 2.18 fold and the “Lyn ubiquitination, ratio relative to RBX1^mut” value (Lyn [6]; IP from control HeLa cells) was 2.58 fold.
